Experimental data: patent US20130324502A1, “NOVEL FORMULATIONS FOR DERMAL, TRANSDERMAL AND MUCOSAL USE 1” (MOBERG PHARMA AB, priority 2011, published 2013)

Assay: Franz cell penetration study through pig skin stratum corneum/epidermis membrane
Type: in vitro ADME
Settings: for Cumulative penetration of spironolactone through stratum corneum/epidermis: formulation of Table 6a, receptor phosphate buffer pH 7.4
Description: The functionality of the formulation was tested by evaporating the anti-solvent ethyl acetate. […] This formulation was used for penetration testing. When applied to the skin, spironolactone is intended to penetrate through the statum corneum into epidermis/dermis and not through the skin.
In this set-up, dermis was removed from full thickness pig skin and the remaining membrane consisting of stratum corneum and epidermis was mounted in the cell. The receptor fluid was phosphate buffer at pH 7.4 and 32° C. An amount of the experimental formulation corresponding to 50 mg of product and 1.5 mg of active substance after evaporation was applied. […] The experiment was performed at 34° C. and analysis of spironolactone was performed by HPLC.

[1] = after 6 hours, 1.5 mg of active substance applied

Compound: CC(=O)S[C@@H]1CC2=CC(=O)CC[C@]2(C)[C@H]2CC[C@@]3(C)[C@@H](CC[C@@]34CCC(=O)O4)[C@H]12 [Spironolactone]
- amount of spironolactone passed the skin membrane [1]: 0.5 mg
- spironolactone passed the skin membrane, % of the dose [1]: 33%
- Cumulative penetration of spironolactone through stratum corneum/epidermis (time 0 h): 0 μg/cm^2
- Cumulative penetration of spironolactone through stratum corneum/epidermis (time 2 h): 281 μg/cm^2
- Cumulative penetration of spironolactone through stratum corneum/epidermis (time 4 h): 381 μg/cm^2
- Cumulative penetration of spironolactone through stratum corneum/epidermis (time 6 h): 440 μg/cm^2
- Cumulative penetration of spironolactone through stratum corneum/epidermis (time 24 h): 466 μg/cm^2
